Measured values taken from US20250127907A1, “PARP INHIBITORS” (Stablix, Inc., priority 2023, published 2025).

Columns and labels:
Assay type in all cases: cell-based
[1] = system: Poly/Mono-ADP Ribose in U2OS cells; experiment: PAR in cell western assay (parylation) in U2OS cells; conditions: Homo sapiens; U2OS cells, 6 hrs, 2 mM H2O2; read-out: Parylation (U2OS)
Protocol: U2OS cells are seeded at 2667 cells per well in 24 ul medium into poly-D lysine-coated 384 well plate and incubated in the TC incubator for O/N
The next day, test comps are diluted in a source plate and 6 μL of the diluted comp is added to the cell plate; mixed well and incubated for 6 hrs. DNA damage is induced with 2 mM H2O2 for 10 min. After discarding the medium, cells are fixed in ice cold Methanol at for 20 min at −20C. After a wash step at room temperature, cells are permeabilized with 0.05% NP-40 in PBS for 10 min, followed by wash steps. Cells are blocked with 1% BSA, at room temperature for 1 hr. Cells are stained with anti mono/polyADP ribose antibody (E6F6A, Cell signaling, 1:5000) in 1×PBS/1% BSA/0.05% Tween o/n at 4C.
Next Day, cells are washed and incubated with anti-Rabbit 800CV (Licor antibody, 1:500) and CellTag 700 (Licor, 1:800) in 1×PBS/1% BSA/0.05% Tween for 1 h. After washing, plates are scanned using LICOR and are quantified.
Parylation inhibition is reported as % control inhibition.
(§1) The letter codes for the PARP1-enzyme assay include: A (<1 nM), B (>1-10 nM), C (>10-100 nM), D (>100-1000 nM), E (>1000 nM), and “-” is not tested. The letter codes for the PARP trapping assay, and parylation assay include: A (<10 nM), B (>10-100 nM), C (>100-1000 nM), […], E (>10000 nM), and “-” is not tested.

A2780 cells = experiment: Cell proliferation assay (A2780); conditions: Homo sapiens, 168 h, 7 days
Protocol: (§2) Cells are counted, diluted to desired density and 40 μL of cell suspension is added into each 384-well tissue-culture treated plates. Plates are incubated in Tissue Culture incubator at 37° C./5% C02 overnight.
(§3) Next day, 40 nl test compounds that are prepared from source plates are transferred to the seeded cells from overnight. Plates are incubated at 37° C./5% C02 for a total of 7 days. After 7-day incubation, plates are equilibrated to room temperature and 30 ul of Cell Counting-Lite is added to each well for a 30 min incubation followed by reading on EnVision.
(§4) The letter codes for the cell proliferation assay in A2780, HCC1806, and MDA-MB-436 cells include: A (<10 nM), B (>10-100 nM), C (>100-1000 nM), D (>1000-10000 nM), E (>10000 nM), and “-” is not tested.

PARP1 = PARP1 (Homo sapiens, UniProt P09874); experiment: PARP trapping assay in U2OS cells; design: endogenous in cells; host or cells: U2OS; conditions: U2OS cells, MMS, 4 hrs; read-out: PARP Trapping (U2OS)
Protocol: U2OS cells are seeded at 15,000 cells/well in 90 ul medium and incubated in the TC incubator for overnight.
Next day, test compounds are prepared in a source plate along with addition of DNA damage reagent MMS simultaneously and 10 ul of the diluted mixture is added to the cell plate and incubated for 4 hrs under T/C conditions.
After 4 hrs, following aspiration and washing, add 100 ul of cold cytoskeleton removal buffer (0.5% Triton X-100) and incubated for 10 min. At the end of incubation, slowly the buffer is removed, and cells are fixed with ice cold MeOH for 15 min at −20C. Followed by wash steps, cells are blocked with 1×PBS/3% BSA/0.05% Tween for 1 h at room temperature.
Cells are stained with anti PARP1 antibody (abeam ab227244, 1:1000), in 1×PBS/1% BSA overnight at 4C.
Wash and add DAPI, scan cells in Celigo.
Data Analysis: DAPI staining is used to segment nuclei and AF488 fluorescence intensity per nucleus is measured.
as §1

MDA-MB-436 cells = experiment: Cell proliferation assay (MDA-MB-436); conditions: Homo sapiens, 168 h, 7 days
Protocol: as §2, §3, §4

HCC1806 cells = experiment: Cell proliferation assay (HCC1806); conditions: Homo sapiens, 168 h, 7 days
Protocol: as §2, §3, §4

Sequence of PARP1 (P09874 whole entry): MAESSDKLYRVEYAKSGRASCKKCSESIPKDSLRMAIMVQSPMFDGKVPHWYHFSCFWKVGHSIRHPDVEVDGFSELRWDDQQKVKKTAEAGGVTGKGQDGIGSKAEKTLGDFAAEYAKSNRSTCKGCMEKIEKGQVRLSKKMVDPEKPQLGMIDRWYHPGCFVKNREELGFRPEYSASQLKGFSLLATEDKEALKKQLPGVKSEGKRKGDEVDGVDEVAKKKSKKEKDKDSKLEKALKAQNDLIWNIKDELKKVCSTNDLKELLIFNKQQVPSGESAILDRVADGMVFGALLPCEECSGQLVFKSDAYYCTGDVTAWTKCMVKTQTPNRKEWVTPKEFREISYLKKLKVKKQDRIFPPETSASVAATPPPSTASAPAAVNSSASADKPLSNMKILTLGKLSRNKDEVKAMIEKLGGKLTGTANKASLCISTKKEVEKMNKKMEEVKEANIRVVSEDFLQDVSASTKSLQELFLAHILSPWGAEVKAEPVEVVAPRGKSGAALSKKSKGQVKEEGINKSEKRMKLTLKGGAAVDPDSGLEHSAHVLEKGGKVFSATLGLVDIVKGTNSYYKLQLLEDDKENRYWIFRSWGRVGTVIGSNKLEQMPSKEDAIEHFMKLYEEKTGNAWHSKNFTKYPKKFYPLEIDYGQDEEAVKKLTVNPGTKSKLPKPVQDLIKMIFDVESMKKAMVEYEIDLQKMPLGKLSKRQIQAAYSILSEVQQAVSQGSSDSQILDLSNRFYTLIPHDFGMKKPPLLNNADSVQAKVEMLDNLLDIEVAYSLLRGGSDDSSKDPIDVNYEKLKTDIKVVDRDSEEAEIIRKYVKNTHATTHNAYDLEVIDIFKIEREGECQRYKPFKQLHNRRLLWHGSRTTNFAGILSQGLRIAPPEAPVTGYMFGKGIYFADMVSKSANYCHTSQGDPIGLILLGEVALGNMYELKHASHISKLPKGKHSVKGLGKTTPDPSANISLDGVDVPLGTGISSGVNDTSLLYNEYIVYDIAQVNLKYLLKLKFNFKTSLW

SMILES	IC50 [1] [nM]	IC50 (A2780 cells) [nM]	IC50 (PARP1) [nM]	IC50 (MDA-MB-436 cells) [nM]	IC50 (HCC1806 cells) [nM]
O=C(N[C@@H](C(=O)N1CCN(CC23CCC(C(=O)N4CCN(C(=O)c5cc(Cc6n[nH]c(=O)c7ccccc67)ccc5F)CC4)(CC2)CO3)CC1)C1CCCCC1)c1cccc([C@H]2CCCN(C(=O)CNC3CC3)C2)c1 (racemic) [Compound I-381]	100 to 1000	10 to 100	< 10	10 to 100	
CCOc1cc(OC)ccc1CNCC(=O)N1CCCC(c2ccc(F)c(C(=O)N[C@@H](C(=O)N3CCN(CC4CCN(CC(=O)N5CCN(C(=O)c6cc(Cc7n[nH]c(=O)c8ccccc78)ccc6F)CC5)CC4)CC3)C3CCCCC3)c2)C1 (some centres unmarked) [Compound I-308]	10 to 100	100 to 1000	10 to 100	100 to 1000	
CCc1cccc(-c2cnc(C(=O)N3CCC(CN4CCN(CC(=O)N5CCN(C(=O)c6cc(Cc7n[nH]c(=O)c8ccccc78)ccc6F)CC5)CC4)CC3)c(NC(=O)CN3CCOCC3)c2)c1 [Compound I-333]	10 to 100	100 to 1000	100 to 1000	10 to 100	
O=C(N[C@@H](C(=O)N1CCN(CC23CCC(C(=O)N4CCN(C(=O)c5cc(Cc6n[nH]c(=O)c7ccccc67)ccc5F)CC4)(CC2)CO3)CC1)C1CCCCC1)c1cccc(C2CCCN(C(=O)CNC3CC3)C2)c1 (some centres unmarked) [Compound I-380]	10 to 100	10 to 100	10 to 100	< 10	
O=C(N[C@@H](C(=O)N1CCN(CC23CCC(C(=O)N4CCN(C(=O)c5cc(Cc6n[nH]c(=O)c7ccccc67)ccc5F)CC4)(CC2)CO3)CC1)C1CCCCC1)c1cccc([C@@H]2CCCN(C(=O)CNC3CC3)C2)c1 [Compound I-382]	10 to 100	10 to 100	10 to 100	< 10	
CCc1cccc(-c2cc(N)c(C(=O)N3CCC(CN4CCN(CC(=O)N5CCN(C(=O)c6cc(Cc7n[nH]c(=O)c8ccccc78)ccc6F)CC5)CC4)CC3)c(F)c2)c1 [Compound I-409]	100 to 1000	100 to 1000	100 to 1000	< 10	
CCc1cccc(-c2cnc(C(=O)N3CCC(CC(=O)N4CCN(C(=O)c5cc(Cc6n[nH]c(=O)c7ccccc67)ccc5F)CC4)CC3)c(NC(=O)CNCc3cccc(C)c3)c2)c1 [Compound I-412]	100 to 1000	10 to 100	10 to 100	< 10	
CCc1cccc(-c2cnc(C(=O)N3CCC(CN4CCN(CC(=O)N5CCN(C(=O)c6cc(Cc7n[nH]c(=O)c8ccccc78)ccc6F)CC5)CC4)CC3)c(C#N)c2)c1 [Compound I-419]	10 to 100	10 to 100	100 to 1000	< 10	
O=C(N[C@@H](C(=O)N1CCN(CC(=O)N2CCN(C(=O)c3cc(Cc4n[nH]c(=O)c5ccccc45)ccc3F)CC2)CC1)C1CCCCC1)c1cc(C2CCCN(C(=O)C3CC3)C2)ccc1F (some centres unmarked) [Compound I-453]	100 to 1000	10 to 100	100 to 1000	10 to 100	
O=C(N[C@@H](C(=O)N1CCN(CC(=O)N2CCN(C(=O)c3cc(Cc4n[nH]c(=O)c5ccccc45)ccc3F)CC2)CC1)C1CCCCC1)c1cccc(C2CCCN(C(=O)C3CC3)C2)c1F (some centres unmarked) [Compound I-454]	10 to 100	10 to 100	100 to 1000	100 to 1000	
O=C(CN1CCC(OC2CCN(C(=O)c3c(F)cc(-c4ccccc4)cc3F)CC2)CC1)N1CCN(C(=O)c2cc(Cc3n[nH]c(=O)c4ccccc34)ccc2F)CC1 [Compound I-634]	< 10		10 to 100	< 10	10 to 100
O=C(N[C@@H](C(=O)N1CCC(OC2CCN(CC(=O)N3CCN(C(=O)c4cc(Cc5n[nH]c(=O)c6ccccc56)ccc4F)CC3)CC2)CC1)C1CCCCC1)c1cccc(C2CCCN(C(=O)C34CC(C3)C4)C2)c1F (some centres unmarked) [Compound I-637]	100 to 1000		10 to 100	100 to 1000	10 to 100
CC1(C(=O)N2CCCC(c3cccc(C(=O)N[C@@H](C(=O)N4CCC(OC5CCN(CC(=O)N6CCN(C(=O)c7cc(Cc8n[nH]c(=O)c9ccccc89)ccc7F)CC6)CC5)CC4)C4CCCCC4)c3F)C2)CC1 (some centres unmarked) [Compound I-660]	100 to 1000		10 to 100	< 10	10 to 100
CC(C)(C)C(=O)N1CCCC(c2cccc(C(=O)N[C@@H](C(=O)N3CCC(OC4CCN(CC(=O)N5CCN(C(=O)c6cc(Cc7n[nH]c(=O)c8ccccc78)ccc6F)CC5)CC4)CC3)C3CCCCC3)c2F)C1 (some centres unmarked) [Compound I-661]	100 to 1000		10 to 100	< 10	10 to 100
O=C(CN1CCC(OC2CCN(C(=O)c3ncc(-c4ccccc4)cc3F)CC2)CC1)N1CCN(C(=O)c2cc(Cc3n[nH]c(=O)c4ccccc34)ccc2F)CC1 [Compound I-709]	< 10		10 to 100	< 10	10 to 100
O=C(N[C@@H](C(=O)N1CCC(CC(=O)N2CCN(C(=O)c3cc(Cc4n[nH]c(=O)c5ccccc45)ccc3F)CC2)CC1)C1CCCCC1)c1cccc(C2CCCN(C(=O)C3CC3)C2)c1F (some centres unmarked) [Compound I-715]	10 to 100		10 to 100	< 10	10 to 100
O=C(CN1CCC(OC2CCN(C(=O)c3c(F)cc(-c4ccncc4)cc3F)CC2)CC1)N1CCN(C(=O)c2cc(Cc3n[nH]c(=O)c4ccccc34)ccc2F)CC1 [Compound I-727]	< 10		< 10	< 10	10 to 100
CC1(C)CC(c2ccc(C(=O)N[C@@H](C(=O)N3CCC(OC4CCN(CC(=O)N5CCN(C(=O)c6cc(Cc7n[nH]c(=O)c8ccccc78)ccc6F)CC5)CC4)CC3)C3CCCCC3)c(F)c2)CCN1C(=O)C1CC1 (some centres unmarked) [Compound I-743]	10 to 100		10 to 100	< 10	10 to 100
O=C(N[C@@H](C(=O)N1CCC(OC2CCN(CC(=O)N3CCN(C(=O)c4cc(Cc5n[nH]c(=O)c6ccccc56)ccc4F)CC3)CC2)CC1)C1CCCCC1)c1ccc(N2CCN(C(=O)C3CC3)CC2)cc1F [Compound I-745]	10 to 100		10 to 100	< 10	10 to 100
O=C(CN1CCN(C[C@@H]2C[C@H]3CC[C@@H]2CN3C(=O)c2c(F)cc(-c3ccccc3)cc2F)CC1)N1CCN(C(=O)c2cc(Cc3n[nH]c(=O)c4ccccc34)ccc2F)CC1 [Compound I-774]	10 to 100	10 to 100		< 10	10 to 100
O=C(CN1CCN(C[C@@H]2C[C@@H]3CC[C@H]2CN3C(=O)c2c(F)cc(-c3ccccc3)cc2F)CC1)N1CCN(C(=O)c2cc(Cc3n[nH]c(=O)c4ccccc34)ccc2F)CC1 [Compound I-777]	10 to 100	10 to 100		< 10	10 to 100
CC(C)(C)C(=O)N1CCC[C@H](c2cccc(C(=O)N[C@@H](C(=O)N3CCC(OC4CCN(CC(=O)N5CCN(C(=O)c6cc(Cc7n[nH]c(=O)c8ccccc78)ccc6F)CC5)CC4)CC3)C3CCCCC3)c2F)C1 [Compound I-910]	100 to 1000	10 to 100		< 10	10 to 100
C[C@@H]1CN(CC2CCN(CC(=O)N3CCN(C(=O)c4cc(Cc5n[nH]c(=O)c6ccccc56)ccc4F)CC3)CC2)CCN1C(=O)[C@H](NC(=O)c1cccc([C@@H]2CCCN(C(=O)C(C)(C)C)C2)c1)C1CCCCC1 [Compound I-973]	100 to 1000	100 to 1000		10 to 100	100 to 1000
